{"source": "patent US20130039930A1", "about": "“BIOMARKER FOR SENSITIVITY TO THERAPY WITH A NOTCH INHIBITOR” (priority 2011, published 2013)", "molecules": {"B1": {"name": "VEGF-C: Vascular endothelial growth factor-C protein added to endothelial cell cultures (protein)", "chain": "AHYNTEILKSIDNEWRKTQCMPREVCIDVGKEFGVATNTFFKPPCVSVYRCGGCCNSEGLQCMNTSTSYLSKTLFEITVPLSQGPKPVTISFANHTSCRCMSKLDVYRQVHSIIRR"}, "B2": {"name": "VEGFR-3(D1-3)-Fc: fusion protein of the immunoglobulin-like domains 1-3 of the extracellular part of human VEGFR-3 and the Fc part of human immunoglobulin G1 (protein)", "chain": "YSMTPPTLNITEESHVIDTGDSLSISCRGQHPLEWAWPGAQEAPATGDKDSEDTGVVRDCEGTDARPYCKVLLLHEVHANDTGSYVCYYKYIKARIEGTTAASSYVFVRDFEQPFINKPDTLLVNRKDAMWVPCLVSIPGLNVTLRSQSSVLWPDGQEVVWDDRRGMLVSTPLLHDALYLQCETTWGDQDFLSNPFLVHITGNELYDIQLLPRKSLELLVGEKLVLNCTVWAEFNSGVTFDWDYPGKQAERGKWVPERRSQQTHTELSSILTIHNVSQHDLGSYVCKANNGIQRFRESTEVIVHE", "modifications": "left off: a dimerising Fc or GST", "notes": "fusion protein of the immunoglobulin-like domains 1-3 of the extracellular part of human VEGFR-3 and the Fc part of human immunoglobulin G1"}}, "key": {"[1]": {"test_system": "metastatic colorectal cancer", "conditions": "cited from earlier work"}, "[2]": {"test_system": "cleaved/activated Notch intracellular domain (NICD)", "assay": "NICD staining in Dll4-Fc- or DAPT-treated HDMECs (LECs and BECs)", "assay_type": "cell-based, human", "conditions": "10 μg/mL, 24 hours", "procedure": "FIG. 1. Expression and function of Dll4-Fc. (A) Map of the AAV9-Dll4-Fc vector. (B) Structure of the Dll4-Fc as a dimeric fusion protein of the ECD of mouse Dll4 and Fc region of human immunoglobulin (hFc). (C) Dll4-Fc in the supernatants of AAV9-transfected 293T cells was analyzed by metabolic labeling, immunoprecipitation with Protein A Sepharose and autoradiography after collecting with protein Sepharose from the supernatant of the virus-infected cells. (D) Human dermal microvascular endothelial cells (HDMECs) on glass coverslips stained with Dll4-Fc (red) on ice. After fixation with paraformaldehyde (PFA) and permeabilzation, the cells were stained for Prox-1 (Green) and Hoechst (Blue). Human immunoglobulin G1 (hIgG) was used as a negative control (Red). Note Dll4-Fc in both the Prox-1-positive lymphatic vascular endothelial cells (LECs) and Prox-1-negative cells. (E) Effect of Dll4-Fc on Notch downstream gene expression. HDMECs were treated with 10 μg/mL Dll4-Fc or 10 μg/mL DAPT for 24 hours, and the expression of Hes-1, Hey-2 and NRARP were quantified by qPCR and normalized for the expression of β-actin. The experiment was repeated 4 times. (F) The cells used in (E) were stained for NICD lymphatic vascular endothelial cells (LECs). Prox-1-positive LECs are indicated by arrowheads. (G) Quantification of NICD fluorescence intensity. **:p<0.01. *: p<0.05. […]"}, "BECs on LECs islands": {"test_system": "BECs on LECs islands", "assay": "Sprout-like structures in 2D culture of LECs and BECs", "assay_type": "cell-based, human", "conditions": "1:1 LECs and BECs, 48 hours, 200 ng/ml VEGF-C with or without 10 μg/ml Dll4-Fc", "procedure": "1:1 Mixtures of BECs and LECs were grown on cover slips for 48 hours without VEGF-C to allow them to make LECs islands surrounded by BECs. The cells were then incubated for a further 48 hours with 200 ng/ml VEGF-C (produced by Dr Michael Jeltsch, University of Helsinki) with or without 10 μg/ml recombinant human Dll4-Fc protein (R&D Systems). After fixation with 1% PFA, the samples were immunostained for PECAM-1, a blood vascular endothelial marker, and podoplanin, a lymphatic endothelial marker, to identify BECs and LECs. The number of sprout-like projections of BECs on LECs islands was then counted under a fluorescence microscope."}, "SK-MeI-103 tumors": {"test_system": "SK-MeI-103 tumors", "assay": "SK-MeI-103 tumor xenograft growth (control or VEGFR-3(D1-3)-Fc expressing)", "assay_type": "in vivo, mouse", "conditions": "SK-MeI-103, AAV9-HSA treated mice", "procedure": "(§1) FIG. 7. Neutralization of VEGF-C/D attenuates the inhibition by Dll4-Fc. (A) The mice were injected by AAV9-Dll4-Fc or AAV9-HSA, followed by subcutaneous implantation of 5×10^6 VEGFR-3(D1-3)-Fc expressing or control retrovirus-transfected SK-MeI-103 cells. *: p<0.01, **: p<0.05. (B) Endomucin staining of the tumors. (C) Quantification of endomucin positive area. […] Scale bar 100 μm.\nSix- to eight-week old female nu/nu BALB/c mice were purchased from Harlan Laboratories (Venray, The Netherlands). The National Board for Animal Experiments at the Provincial State Office of Southern Finland approved all the experiments, which were performed in accordance with Finnish legislation regarding the humane care and use of laboratory animals. […] Once the tumors became visible during the first few days, the size of the tumor was measured by a digital caliper every second day. The tumor volume was calculated using the formula: (length)×(width)×(depth)×0.52.\nThe SK-Mel-103 cells were transfected by an empty retrovirus (control) or by a retrovirus encoding VEGFR-3(D1-3)-Fc and then subcutaneously inoculated into nu/nu mice treated with the AAV9-HSA or the AAV9-Dll4-Fc as described above. […] This difference was statistically significant when measured 10, 12 and 14 days after tumor inoculation. […]"}, "[3]": {"test_system": "SK-MeI-103 tumor blood vessels", "assay": "Endomucin and VEGFR-3 staining of SK-MeI-103 tumors", "assay_type": "in vivo, mouse", "conditions": "SK-MeI-103 tumors expressing the VEGF-C/D trap", "excerpt": "FIG. 6. Dll4-Fc suppresses growth of tumors expressing high levels of endogenous VEGF-C. (A) VEGF-C mRNA levels in the indicated tumor cell lines analyzed by qRT-PCR. (B) Effects of Dll4-Fc on the proliferation LNM35 and SK-MeI-103 cells in culture. […] (C) The effect of Dll4-Fc on the growth of LNM35 and SK-MeI-103 tumors. (D) Endomucin staining of LNM35 and SK-MeI-103 tumors. More sprouts were associated with Dll4-Fc treatment (arrows). (E) Quantification of endomucin positive areas in LNM35 and SK-MeI-103 tumors from (D). **:p<0.01. Scale bar 50 μm.\nas §1\nFIG. 9. Dll4-Fc induced hypersprouting and VEGFR-3 expression in tumors. (A) High magnification fluorescent imaging of blood vessels in the SW480 tumors. Endomucin staining. […] (C) Quantification of VEGFR-3 staining intensity in the blood vessels. **: p<0.01. […]\nThe immunofluorescent images were captured with a Zeiss digital Axiocam camera connected to a Zeiss AxioPlan 2 microscope. […] The image quantification was carried out using ImageJ software (NIH, Bethesda, Md.)."}, "[4]": {"test_system": "VEGF-C-induced BaF3/VEGFR-3 cell proliferation", "assay": "BaF3/VEGFR-3 assay", "assay_type": "cell-based, mouse", "conditions": "supernatant from SK-VEGFR-3(D1-3)-Fc cells", "procedure": "The BaF3/VEGFR-3 cells are derived from the interleukin-3 (IL-3) dependent mouse pro-B cell line, BaF3 (Bernardi et al., 1987). The cells express a chimeric receptor consisting of the ECD of human VEGFR-3 fused in-frame to the transmembrane and intracellular domain of mouse erythropoietin receptor (Achen et al., 2000). In IL-3 deficient cell media, the cells can be rescued by the addition of VEGF-C. The serial dilutions of supernatants (50 μl each), as well as positive and negative controls were applied in the wells of 96-well plates in quadruplicate. Subsequently, 20,000 BaF3/VEGFR-3 cells in 50 μl were added and the cells incubated at 37° C. for 48 hours. MTT substrate was added and the cells incubated at 37° C. for 2 hours. Lysis buffer (10% SDS, 10 mM HCl) was added and the plates incubated at 37° C. overnight for colour development. Quantification was done by absorbance at 540 nm."}, "[5]": {"conditions": "newly diagnosed, Mayo Clinic or Roswell Park regimen"}, "[6]": {"conditions": "subjects progressed following 5-FU therapy"}}, "data": [{"molecule": "5-FU/leucovorin", "values": [{"measurement": "median survival", "setting": "[1]; [5]", "value": "12-14 months"}, {"measurement": "median time to disease progression", "setting": "[1]; [5]", "value": "4-5 months"}]}, {"molecule": "C[C@H](NC(=O)Cc1cc(F)cc(F)c1)C(=O)N[C@H](C(=O)OC(C)(C)C)c1ccccc1", "note": "[DAPT, N—[N-(3,5-difluorophenacetyl)-1-alanyl]-S-phenyl-glycine t-butyl ester]", "values": [{"measurement": "intensity of NICD", "setting": "[2]", "value": "decreased in both LECs and BECs"}]}, {"molecule": "CCc1c2c(nc3ccc(OC(=O)N4CCC(N5CCCCC5)CC4)cc13)-c1cc3c(c(=O)n1C2)COC(=O)[C@]3(O)CC", "note": "[irinotecan]", "values": [{"measurement": "prolongation of survival versus best supportive care", "setting": "[1]; [6]", "value": 2.8, "unit": "month"}, {"measurement": "prolongation of survival versus infusional 5-FU", "setting": "[1]; [6]", "value": 2.2, "unit": "month"}]}, {"molecule": "B1", "values": [{"measurement": "frequency of sprout-like structures of BECs over LECs islands", "setting": "BECs on LECs islands", "value": "tended to increase the sprout-like structure, but the difference was not statistically significant"}]}, {"molecule": "B2", "values": [{"measurement": "growth rates of VEGFR-3(D1-3)-Fc versus empty retrovirus tumors", "setting": "SK-MeI-103 tumors", "value": "No difference in growth rates"}, {"measurement": "endothelial proliferation / vessel density in tumors", "setting": "[3]", "value": "downregulated endothelial proliferation"}, {"measurement": "BaF3/VEGFR-3 cell proliferation induced by VEGF-C", "setting": "[4]", "value": "suppresses"}]}]}
